Columns and labels:
Type in all cases: in vivo
[1] = test system: Polygonum convolvulus (POLCO); test: Herbicidal pre-emergence action, section C (Table C7); conditions: visual grading after ca. 3 weeks
Text: (§1) Seeds of mono- and dicotyledonous weed plants and crop plants were sown, in plastic or organic planting pots, in sandy loam and covered with soil. The compounds according to the invention, formulated in the form of wettable powders (WP) or as emulsifiable concentrates (EC), were applied to the surface of the covering soil as aqueous suspension or emulsion, with the addition of 0.5% of an additive, at an application rate of 600 l of water/ha (converted). Following treatment, the pots were placed in a greenhouse and kept under optimum growth conditions for the test plants. The visual grading of the damage to the test plants was carried out after ca. 3 weeks in comparison to untreated controls (herbicidal effect in percent (%): 100% effect=plants have died off, 0% effect=as control plants).

[2] = test system: Digitaria sanguinalis (DIGSA); test: Herbicidal pre-emergence action, section C (Table C12); conditions: visual grading after ca. 3 weeks; for pest or weed control at 320 g/ha: Digitaria sanguinalis, pre-emergence, 504 h, read-out: pre-emergence activity against DIGSA in %
Procedure, shortened: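 Weed and crop seeds sown in sandy loam, covered with soil, then WP or EC formulations sprayed onto the soil surface as aqueous suspension/emulsion with 0.5% additive at 600 l water/ha. Kept in greenhouse under optimum conditions; damage graded visually after ca. 3 weeks versus untreated controls (0% = as control, 100% = plants dead).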

Glycine max (GLXMA) = test: Pre-emergence effects on crop plants, section D (Table D4); conditions: visual grading after ca. 3 weeks
Procedure, shortened: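 After sowing in sandy loam and covering with soil, pots receive compound applied to the soil surface at rates up to 320 g/ha in 600 l water/ha containing 0.5% additive. Plants then grow under optimum greenhouse conditions. Percent herbicidal effect is rated visually at roughly 3 weeks against untreated pots.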

[3] = test system: Amaranthus retroflexus (AMARE); test: Herbicidal post-emergence action, section E (Table E3); conditions: application rate 320 g/ha, assessed visually after ca. 3 weeks
Text: Seeds of mono- and dicotyledonous weed plants and crop plants were sown, in plastic or organic planting pots, in sandy loam, covered with soil and grown in a greenhouse under controlled growth conditions. 2 to 3 weeks after sowing, the test plants were sprayed in the single-leaf stage. The compounds according to the invention, formulated in form of wettable powders (WP) or as emulsifiable concentrates (EC), were sprayed onto the green plant parts as aqueous suspension or emulsion, with the addition of 0.5% of an additive, at an application rate of 600 l of water/ha (converted). The test plants were placed in the greenhouse for ca. 3 weeks under optimum growth conditions, and then the effect of the preparations was assessed visually in comparison with untreated controls (herbicidal effect in percent (%): 100% effect=plants have died off, 0% effect=as control plants).

[4] = test system: Abutilon theophrasti (ABUTH); test: Herbicidal pre-emergence action, section A (Table A1); conditions: application rate 1280 g/ha, visual grading after ca. 3 weeks vs untreated controls
Text: as §1, with “plants” for “plants and crop plants”, “sown” for “sown,”, “pots (double sowings with one species of mono- and one species of dicotyledonous weed plants per pot),” for “or organic planting pots,”, “loam,” for “loam”, “water per hectare” for “water/ha”

[5] = test system: Echinochloa crus-galli (ECHCG); test: Herbicidal pre-emergence action, section A (Table A3); conditions: visual grading after ca. 3 weeks vs untreated controls
Procedure, shortened: (§2)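 Seeds sown in sandy loam and covered with soil; compounds formulated as WP or EC were applied to the soil surface as aqueous suspension or emulsion with 0.5% additive at 600 l water/ha. Pots kept in greenhouse under optimum conditions; damage scored visually after ca. 3 weeks versus untreated controls (0–100%).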

[6] = test system: Digitaria sanguinalis (DIGSA); test: Herbicidal pre-emergence action, section A (Table A12); conditions: for pre-emergence activity against DIGSA in %: application rate 320 g/ha
Procedure, shortened: as §2

Kochia scoparia (KCHSC) = test: Herbicidal post-emergence action, section B (Table B4); conditions: application rate 320 g/ha, visual rating about 3 weeks after treatment vs untreated controls
Procedure, shortened: (§3)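 In this greenhouse assay, compounds in WP or EC form were applied post-emergence with 0.5% additive at a water rate of 600 liters per hectare. Treatment took place at the one-leaf stage, and injury was rated visually about 3 weeks later against untreated plants.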

[7] = test system: Digitaria sanguinalis (DIGSA); test: Herbicidal post-emergence action, section B (Table B12); conditions: visual rating about 3 weeks after treatment vs untreated controls
Procedure, shortened: as §3

[8] = test system: Abutilon theophrasti (ABUTH); test: Herbicidal post-emergence action, section B (Table B1); conditions: rated visually after about 3 weeks
Procedure, shortened: as §3

[9] = test system: Echinochloa crus-galli (ECHCG); test: Herbicidal post-emergence action, section B (Table B3); conditions: rated visually after about 3 weeks
Procedure, shortened: as §3

CC(C)C(=O)N1C[S+]([O-])c2cc(Br)c(-c3ccccc3)nc21 (stereo not shown) [Example I-067]
pest or weed control at 80 g/ha ([1]; Fallopia convolvulus, pre-emergence, 504 h, application rate 80 g/ha, read-out: pre-emergence activity against POLCO in %): 90%
pest or weed control at 320 g/ha ([2]; application rate 320 g/ha): 100%
pre-emergence activity against GLXMA in % (crop plant damage) (Glycine max (GLXMA); application rate 80 g/ha): 20%
pest or weed control at 320 g/ha ([3]; Amaranthus retroflexus, post-emergence, 504 h, read-out: post-emergence activity against AMARE in %): 80%

CCS(=O)(=O)N1C[S+]([O-])c2cc(C)c(-c3ccccc3C)nc21 (stereo not shown) [Example I-074]
pest or weed control at 1280 g/ha ([4]; Abutilon theophrasti, pre-emergence, 504 h, read-out: pre-emergence activity against ABUTH in %): 90%
pest or weed control at 320 g/ha ([5]; Echinochloa crus-galli, pre-emergence, 504 h, application rate 320 g/ha, read-out: pre-emergence activity against ECHCG in %): 100%
pest or weed control at 1280 g/ha ([6]; Digitaria sanguinalis, 504 h, application rate 1280 g/ha, read-out: pre-emergence activity against DIGSA in %): 100%
pest or weed control at 320 g/ha (Kochia scoparia (KCHSC); Bassia scoparia, post-emergence, 504 h, read-out: post-emergence activity against KCHSC in %): 90%
pest or weed control at 1280 g/ha ([7]; Digitaria sanguinalis, post-emergence, 504 h, application rate 1280 g/ha, read-out: post-emergence activity against DIGSA in %): 90%
pest or weed control at 320 g/ha ([1]; Fallopia convolvulus, pre-emergence, 504 h, application rate 320 g/ha, read-out: pre-emergence activity against POLCO in %): 90%
pest or weed control at 320 g/ha ([2]; application rate 320 g/ha): 100%
pre-emergence activity against GLXMA in % (crop plant damage) (Glycine max (GLXMA); application rate 320 g/ha): 0%

Cc1cc2c(nc1-c1ccccc1F)N(C(=O)C1(C)CC(Cl)=NO1)CS2 (stereo not shown) [Example I-083]
pre-emergence activity against ECHCG in % ([5]; application rate 320 g/ha): 100%
pre-emergence activity against DIGSA in % [6]: 100%
post-emergence activity against ABUTH in % ([8]; application rate 320 g/ha): 90%
post-emergence activity against ECHCG in % ([9]; application rate 1280 g/ha): 90%
post-emergence activity against KCHSC in % (Kochia scoparia (KCHSC)): 90%
post-emergence activity against DIGSA in % ([7]; application rate 1280 g/ha): 90%
pre-emergence activity against POLCO in % ([1]; application rate 320 g/ha): 90%
pre-emergence activity against DIGSA in % ([2]; application rate 320 g/ha): 100%
post-emergence activity against AMARE in % [3]: 80%

Cc1cc2c(nc1-c1ccccc1)N(C(=O)C1(C)CC(Cl)=NO1)CS2 (stereo not shown) [Example I-088]
pre-emergence activity against ECHCG in % ([5]; application rate 320 g/ha): 100%
pre-emergence activity against DIGSA in % [6]: 100%
post-emergence activity against ABUTH in % ([8]; application rate 320 g/ha): 90%
post-emergence activity against ECHCG in % ([9]; application rate 320 g/ha): 90%
post-emergence activity against KCHSC in % (Kochia scoparia (KCHSC)): 90%
post-emergence activity against DIGSA in % ([7]; application rate 1280 g/ha): 100%
pre-emergence activity against POLCO in % ([1]; application rate 320 g/ha): 90%
pre-emergence activity against DIGSA in % ([2]; application rate 320 g/ha): 100%

Cc1cc2c(nc1-c1ccccc1F)N(C(=O)C13CCCC1C(Cl)=NO3)CS2 (stereo not shown) [Example I-104]
pre-emergence activity against ABUTH in % [4]: 90%
pre-emergence activity against ECHCG in % ([5]; application rate 320 g/ha): 100%
pre-emergence activity against DIGSA in % [6]: 100%
post-emergence activity against ABUTH in % ([8]; application rate 320 g/ha): 90%
post-emergence activity against ECHCG in % ([9]; application rate 320 g/ha): 90%
post-emergence activity against KCHSC in % (Kochia scoparia (KCHSC)): 90%
post-emergence activity against DIGSA in % ([7]; application rate 1280 g/ha): 90%
pre-emergence activity against POLCO in % ([1]; application rate 80 g/ha): 80%
pre-emergence activity against DIGSA in % ([2]; application rate 80 g/ha): 100%

Cc1cc2c(nc1-c1cccc(C)c1F)NCS2 [Example I-113]
pre-emergence activity against ECHCG in % ([5]; application rate 1280 g/ha): 100%
pre-emergence activity against DIGSA in % [6]: 100%
post-emergence activity against KCHSC in % (Kochia scoparia (KCHSC)): 90%
post-emergence activity against DIGSA in % ([7]; application rate 320 g/ha): 90%
pre-emergence activity against POLCO in % ([1]; application rate 80 g/ha): 90%
pre-emergence activity against DIGSA in % ([2]; application rate 320 g/ha): 100%
pre-emergence activity against GLXMA in % (crop plant damage) (Glycine max (GLXMA); application rate 320 g/ha): 10%

Cc1cc2c(nc1-c1ccccc1F)N(S(=O)(=O)Cc1ccc(F)cc1)CS2 [Example I-122]
pre-emergence activity against ABUTH in % [4]: 90%
pre-emergence activity against ECHCG in % ([5]; application rate 320 g/ha): 100%
pre-emergence activity against DIGSA in % [6]: 100%
post-emergence activity against ABUTH in % ([8]; application rate 1280 g/ha): 90%
post-emergence activity against ECHCG in % ([9]; application rate 1280 g/ha): 100%
post-emergence activity against KCHSC in % (Kochia scoparia (KCHSC)): 90%
post-emergence activity against DIGSA in % ([7]; application rate 1280 g/ha): 90%
pre-emergence activity against POLCO in % ([1]; application rate 80 g/ha): 80%
pre-emergence activity against DIGSA in % ([2]; application rate 320 g/ha): 100%
pre-emergence activity against GLXMA in % (crop plant damage) (Glycine max (GLXMA); application rate 80 g/ha): 10%
